Where “and” joins values, the source holds several entries; their conditions need not be identical. Identical values can stand only once. Toxic doses and inconclusive results are not listed. The calls were made as follows: active = survival T/C of 150% or more; inactive = T/C below 125% in these data.
System: P388 leukemia ip, CD2F1 mice, survival T/C
Test: NCI In Vivo Anticancer Drug Screen. Data for tumor model P388 Leukemia (intraperitoneal) in CD2F1 (CDF1) mice
Conditions: endpoint: median survival time, higher = longer survival
Outline: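 Mice carrying the transplanted tumor received test compound or vehicle. Survival was recorded in each group, and the value is the treated-group measurement divided by that of the vehicle-treated control group.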

[1] = dose: 12.5 mg/kg/injection, schedule: Q01DX009 (ip), vehicle: saline
[2] = dose: 25.0 mg/kg/injection, schedule: Q01DX009 (ip), vehicle: saline
[3] = dose: 50.0 mg/kg/injection, schedule: Q01DX009 (ip), vehicle: saline
[4] = dose: 300.0 mg/kg/injection, schedule: Q04DX003 (ip), vehicle: saline with Tween-80
[5] = dose: 50.0 mg/kg/injection, schedule: Q01DX005 (ip), vehicle: saline with Tween-80
[6] = dose: 100.0 mg/kg/injection, schedule: Q01DX005 (ip), vehicle: saline with Tween-80
[7] = dose: 200.0 mg/kg/injection, schedule: Q01DX005 (ip), vehicle: saline with Tween-80
[8] = dose: 100.0 mg/kg/injection, schedule: Q01DX009 (ip), vehicle: saline
[9] = dose: 200.0 mg/kg/injection, schedule: Q01DX009 (ip), vehicle: Klucel (hydroxypropylcellulose) (HPC)
[10] = dose: 50.0 mg/kg/injection, schedule: Q01DX005 (ip), vehicle: Klucel (hydroxypropylcellulose) (HPC)
[11] = dose: 100.0 mg/kg/injection, schedule: Q01DX005 (ip), vehicle: Klucel (hydroxypropylcellulose) (HPC)
[12] = dose: 200.0 mg/kg/injection, schedule: Q01DX005 (ip), vehicle: Klucel (hydroxypropylcellulose) (HPC)
[13] = dose: 50.0 mg/kg/injection, schedule: Q01DX009 (ip), vehicle: Klucel (hydroxypropylcellulose) (HPC)
[14] = dose: 100.0 mg/kg/injection, schedule: Q01DX009 (ip), vehicle: Klucel (hydroxypropylcellulose) (HPC)

Measured: T/C

CC(CNC(=O)CCOS(C)(=O)=O)CNC(=O)CCOS(C)(=O)=O
inactive: dose: 6.25 mg/kg/injection, schedule: Q01DX009 (ip), vehicle: saline 105 % of control | [1] 106 % of control | [2] 100 % of control | [3] 102 % of control

COc1cccc([N+]([O-])=NC#N)c1
inactive: dose: 12.5 mg/kg/injection, schedule: Q04DX003 (ip), vehicle: Klucel (hydroxypropylcellulose) (HPC) 105 % of control | dose: 25.0 mg/kg/injection, schedule: Q04DX003 (ip), vehicle: Klucel (hydroxypropylcellulose) (HPC) 115 % of control | dose: 50.0 mg/kg/injection, schedule: Q04DX003 (ip), vehicle: Klucel (hydroxypropylcellulose) (HPC) 107 % of control and 90 % of control

COC(=O)CCc1ccc(NP(=O)(N2CC2)N2CC2)cc1
active: dose: 100.0 mg/kg/injection, schedule: Q01DX009 (ip), vehicle: saline with Tween-80 150 % of control | dose: 132.0 mg/kg/injection, schedule: Q04DX003 (ip), vehicle: saline with Tween-80 150 % of control | dose: 200.0 mg/kg/injection, schedule: Q04DX003 (ip), vehicle: saline with Tween-80 156 % of control
inactive: dose: 12.5 mg/kg/injection, schedule: Q04DX003 (ip), vehicle: saline with Tween-80 100 % of control | dose: 25.0 mg/kg/injection, schedule: Q04DX003 (ip), vehicle: saline with Tween-80 115 % of control | dose: 200.0 mg/kg/injection, schedule: Q01DX009 (ip), vehicle: saline with Tween-80 90 % of control | [4] 90 % of control

O=c1cc(-c2ccc(OCc3ccccc3)cc2)oc2ccccc12
inactive: [5] 92 % of control | [6] 87 % of control | [7] 86 % of control

c1ccc(-c2nc3ccccc3nc2-c2ccc(Sc3ccc(-c4nc5ccccc5nc4-c4ccccc4)cc3)cc2)cc1
inactive: dose: 6.25 mg/kg/injection, schedule: Q01DX009 (ip), vehicle: saline with Tween-80 96 % of control | dose: 12.5 mg/kg/injection, schedule: Q01DX009 (ip), vehicle: saline with Tween-80 93 % of control | dose: 25.0 mg/kg/injection, schedule: Q01DX009 (ip), vehicle: saline with Tween-80 90 % of control

Cc1cc(NC(=O)c2ccc(N=Nc3cc(S(=O)(=O)O)c4ccccc4c3O)cc2)ccc1N=Nc1ccc2cc(S(=O)(=O)O)cc(S(=O)(=O)O)c2c1
inactive: dose: 12.5 mg/kg/injection, schedule: Q01DX005 (ip), vehicle: saline with Tween-80 102 % of control and 97 % of control | dose: 25.0 mg/kg/injection, schedule: Q01DX005 (ip), vehicle: saline with Tween-80 99 % of control and 97 % of control | [5] 101 % of control and 111 % of control | [6] 102 % of control and 109 % of control and 117 % of control | [7] 101 % of control

Cc1ccc(S(=O)(=O)N(Cc2ccc(Cl)cc2)S(=O)(=O)c2ccc(C)cc2)cc1
inactive: [2] 110 % of control | [3] 108 % of control | [8] 100 % of control | [9] 100 % of control

O=C(NC(=S)Nc1c(Cl)cccc1Cl)c1cccc(Cl)c1
inactive: dose: 12.5 mg/kg/injection, schedule: Q01DX005 (ip), vehicle: Klucel (hydroxypropylcellulose) (HPC) 106 % of control | dose: 25.0 mg/kg/injection, schedule: Q01DX005 (ip), vehicle: Klucel (hydroxypropylcellulose) (HPC) 92 % of control | [10] 94 % of control

CCCCN(CCCC)CC(O)c1ccc(OCc2ccccc2)c2ccccc12 (stereo not given)
inactive: [5] 102 % of control | [6] 102 % of control | [7] 102 % of control

CC(=O)Nc1ccc(C)c2ccccc12
inactive: dose: 75.0 mg/kg/injection, schedule: Q04DX003 (ip), vehicle: saline with Tween-80 100 % of control | dose: 150.0 mg/kg/injection, schedule: Q04DX003 (ip), vehicle: saline with Tween-80 104 % of control | [4] 108 % of control

C(=NCCC[Si]12OCCN(CCO1)CCO2)c1ccc(C=NCCC[Si]23OCCN(CCO2)CCO3)cc1
inactive: [10] 95 % of control | [11] 97 % of control | [12] 95 % of control

O=S(=O)(Nc1ccc2ccc3cccc4ccc1c2c34)c1ccccc1
inactive: [13] 98 % of control | [14] 100 % of control | [9] 100 % of control

CN1CCN(c2ccncc2S(=O)(=O)N2CCOCC2)CC1
inactive: [3] 97 % of control | [8] 95 % of control

CCCC(=O)NC1CCc2cc(OC)c(OC)c(OC)c2-c2ccc(OC)c(=O)cc21 (stereo not given)
active: dose: 0.62 mg/kg/injection, schedule: Q01DX009 (ip), vehicle: Klucel (hydroxypropylcellulose) (HPC) 152 % of control | dose: 0.63 mg/kg/injection, schedule: Q01DX009 (ip), vehicle: Klucel (hydroxypropylcellulose) (HPC) 178 % of control | dose: 1.25 mg/kg/injection, schedule: Q01DX009 (ip), vehicle: Klucel (hydroxypropylcellulose) (HPC) 152 % of control and 233 % of control | dose: 2.5 mg/kg/injection, schedule: Q01DX009 (ip), vehicle: Klucel (hydroxypropylcellulose) (HPC) 221 % of control

FC(F)(F)c1cccc(NC(=S)SCc2ccc(Cl)c(Cl)c2)c1
inactive: [1] 95 % of control | [2] 89 % of control | [3] 90 % of control | dose: 50.0 mg/kg/injection, schedule: Q01DX009 (ip), vehicle: suspension in saline 89 % of control | [8] 90 % of control | dose: 200.0 mg/kg/injection, schedule: Q01DX009 (ip), vehicle: saline 100 % of control | dose: 200.0 mg/kg/injection, schedule: Q01DX009 (ip), vehicle: suspension in saline 97 % of control

Cc1ccc(C)c(C2=C/C(=C/c3ccc(N(CCC#N)CCC#N)cc3)C(=O)O2)c1
inactive: dose: 100.0 mg/kg/injection, schedule: Q01DX001 (ip), vehicle: saline with Tween-80 97 % of control | dose: 200.0 mg/kg/injection, schedule: Q01DX001 (ip), vehicle: saline with Tween-80 92 % of control | dose: 400.0 mg/kg/injection, schedule: Q01DX001 (ip), vehicle: saline with Tween-80 101 % of control

Cn1cc(N)c2ccccc2c1=O
inactive: [5] 103 % of control

O=C1C=CC(=Nc2ccc(N(CCCl)CCCl)cc2)C=C1
inactive: [13] 89 % of control | [14] 89 % of control

Cc1nc(C(=O)O)c(C)c(=O)[nH]1
inactive: dose: 0.78 mg/kg/injection, schedule: Q01DX009 (ip), vehicle: water 96 % of control | dose: 0.78 mg/kg/injection, schedule: Q04DX003 (ip), vehicle: water 91 % of control | dose: 1.56 mg/kg/injection, schedule: Q01DX009 (ip), vehicle: water 96 % of control | dose: 1.56 mg/kg/injection, schedule: Q04DX003 (ip), vehicle: water 91 % of control | dose: 3.13 mg/kg/injection, schedule: Q01DX009 (ip), vehicle: water 112 % of control | dose: 3.13 mg/kg/injection, schedule: Q04DX003 (ip), vehicle: water 98 % of control | dose: 6.25 mg/kg/injection, schedule: Q01DX009 (ip), vehicle: water 119 % of control | dose: 6.25 mg/kg/injection, schedule: Q04DX003 (ip), vehicle: water 100 % of control | dose: 12.5 mg/kg/injection, schedule: Q01DX009 (ip), vehicle: water 114 % of control | dose: 12.5 mg/kg/injection, schedule: Q04DX003 (ip), vehicle: water 101 % of control

Cc1cccc2c(=O)[nH]c(=O)[nH]c12
inactive: [10] 93 % of control | [11] 89 % of control | [12] 89 % of control

CCN(CC)CCCSCCCNc1cc(OC)cc2cccnc12
inactive: dose: 12.5 mg/kg/injection, schedule: Q01DX005 (ip), vehicle: saline 105 % of control | dose: 25.0 mg/kg/injection, schedule: Q01DX005 (ip), vehicle: saline 100 % of control | dose: 50.0 mg/kg/injection, schedule: Q01DX005 (ip), vehicle: saline 99 % of control and 91 % of control

CC12CN3CC(C)(C1=O)C(=O)C(C)(C3)C2=O
inactive: dose: 60.0 mg/kg/injection, schedule: Q01DX005 (ip), vehicle: saline 94 % of control | dose: 120.0 mg/kg/injection, schedule: Q01DX005 (ip), vehicle: saline 92 % of control | dose: 240.0 mg/kg/injection, schedule: Q01DX005 (ip), vehicle: saline 94 % of control

c1ccc2c(c1)Cc1c(-c3noc4c3Cc3ccccc3-4)noc1-2
inactive: dose: 60.0 mg/kg/injection, schedule: Q01DX005 (ip), vehicle: Klucel + Tween-80 100 % of control | dose: 120.0 mg/kg/injection, schedule: Q01DX005 (ip), vehicle: Klucel + Tween-80 90 % of control | dose: 240.0 mg/kg/injection, schedule: Q01DX005 (ip), vehicle: Klucel + Tween-80 91 % of control

From PubChem BioAssay AID330 (DTP/NCI, 2004)
